What was measured:
[1] = system: USP25 and MDC1 BRCT-domain / FHA-domain; experiment: GST pull-down of USP25 with MDC1 deletions after 5-Fu; assay type: cell-based, human; settings: 5-Fu (20 uM), HEK293T lysates
Procedure: Figure 4 Regulation of the DDR signaling by USP25. a) HEK293T cells were left untreated or treated with IR (10 Gy) or 5‐Fu (20 uM). USP25 was immunoprecipitated and immunoblotted with phospho‐SQ/TQ (p‐SQ/TQ). b) HEK293T cells were pretreated with Ku55933 (25 µM) for 2 h followed by treatment with IR(10 Gy). After 1 h, USP25 was immunoprecipitated, left untreated, or treated with phosphatase and immunoblotted with p‐SQ/TQ. c) HEK293T cells transfected with USP25^WT and indicated constructs were left treated with IR(10 Gy). USP25 was immunoprecipitated and immunoblotted with p‐SQ/TQ. d) USP25 knockdowm U2OS cells rescued with USP25WT or USP25T523A were treated with IR (2 Gy), and co‐localization USP25 with γH2AX was detected by immunofluorescence. n>80 in each group. e) HEK293T cells were left untreated or treated with 5‐Fu (20 uM). […] The interaction USP25 and MDC1 deletions was detected. g) HEK293T cells transfected with USP25^WT or USP25^T523A were treated with IR, and cell lysates were incubated with GST or GST‐MDC1‐BRCT in vitro. The interaction USP25 and MDC1‐BRCT was detected. h) Non‐phosphorylated or phosphorylated Thr523 peptide was conjugated to beads and incubated with purified GST‐MDC1‐BRCT domain in buffer. […]

RKO cells = experiment: CCK8 survival assay, control, USP25 knockdown and SHLD2-depleted RKO cells; assay type: cell-based; settings: 5-Fu (0, 0.1, 0.5, 1, 3 µM) or cisplatin (0, 0.1, 0.5, 1, 2, 5 µM)
Procedure: For long‐term proliferation, cells were seeded in triplicate in each well of 96‐well plates at a density of 1000 cells per well. After 24 h of culture, the cells were treated with the indicated doses of regents or peptides and incubated at 37 °C for 72 h. Subsequently, the medium was changed to a fresh medium containing cell counting kit‐8 solution (Dojindo, CK04), and the cells were placed in the incubator for an additional 1–2 h. The absorbance was measured at 450 nm using the SpectraMax M5 reader (Molecular Devices).
a) HEK293T cells stably expressing control or USP25 shRNA were untreated and treaded with etopside at the indicated time point. Cells were lysed and lysates was performed with the indicated antibodies. b-c) Representative foci images and quantification of RPA32 (b) and RAD51 (c) were obtained in U2OS cells stably expressing control or USP25 shRNA with or without IR treatment (2Gy). n>80 in each group. d) USP25 was knocked down in ER-AsiSI U2OS cells by shRNA, and cell lysates were analyzed using the indicated antibodies. e) Schematic representation of Taqman qPCR primer design for measurement of DSB% at AsiSI sites located on chromosome1(Chr.1). The primer pairs of DNA resection are across BamHI restriction sites are marked by red arrows. ER-AsiSI U2OS cells stably expressing control and USP25 shRNA were treated with 300 nM 4- hydroxytamoxifen (4-OHT) for 4 h or mock treated and genomic DNA was then extracted and digested with BamHI overnight. The percentages of ssDNA at various distances (364nt, 1754nt and 3564nt) were measured by qPCR. f-h) Control and USP25 knockdown RKO cells transfected short interfering RNAs (siRNA) against SHLD2 were subjected to survival assays for CCK8 assay in response to IR (0, 1,1.5,2,2.5,3Gy), 5-Fu (0, 0.1,0.5,1,3µM) or cisplatin(0, 0.1,0.5,1,2,5µM). Statistical analysis was performed using two-way ANOVA followed by a Turkey’s multiple comparison test (b,c,e,f,g,h) .

For `O=c1[nH]cc(F)c(=O)[nH]1` [5‐Fu, 5‐fluorouracil], the “interaction of MDC1 domains with USP25 after treatment” value [1] was “MDC1 BRCT‐domain but not FHA‐domain interacted with USP25”, the “sensitization by USP25 knockdown” value (RKO cells; Figure S2f-h) was “sensitized cells to IR, 5‐Fu, and cisplatin treatment” and the “sensitization by USP25 knockdown in SHLD2-depleted cells” value (RKO cells; SHLD2 siRNA) was “didn't further lead cells to sensitize to these treatments”.

— publication PMC11267380, “USP25 Elevates SHLD2‐Mediated DNA Double‐Strand Break Repair and Regulates Chemoresponse in Cancer” (Advanced Science, 2024)
